Assays:
m-IMCD3 cells = assay: Inhibition of PGE2-stimulated in vitro cyst formation in 3D culture of m-IMCD3 cells; type: cell-based, mouse; conditions: Mus musculus, mIMCD3, 144 h; 10 μM test compound; mean cyst area (%) compared to 100% for (DMSO + PGE2) and 0% for DMSO control; 100 nM PGE2; 6 days; read-out: % Cyst area after incubation with 10 μM test compound
Method in brief: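 Mouse m-IMCD3 cells grown in 3D collagen I/Matrigel gels. From 18-24 h after plating, compound (0.1% DMSO) plus 100 nM PGE2 were added and replenished at 2-3 days. After 6 days, imaging gave mean cyst area, scaled to 100% for DMSO+PGE2 and 0% for DMSO alone.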

[1] = tested on: PTH-induced cAMP elevation in urine; assay: In vivo model of hyperparathyroidism: PTH-induced cAMP elevation in urine in the anaesthetised rat; conditions: i.v. infusion, PTH challenge, urine collected from 90 to 120 min, result in words
Text: Within the kidney, the binding of parathyroid hormone (PTH) to PTH receptors results in the Gas-mediated elevation of intracellular cAMP. This increase of intracellular cAMP results in extrusion of cAMP to the urine (Yates et al., J Clin Invest 81: 932-938, 1988). This experiment is based upon a modified Ellsworth-Howard assay (Kruse, K. and Kracht, U., European Journal of Pediatrics 146: 373-377, 1987) and conducted in anaesthetized rats. In this experiment, rats were anaesthetized using isoflurane and catheterised to allow the collection of urine from the bladder. After an initial stabilization period, test compounds were administered by i.v. infusion (modelled to steady state) from time 0-120 min. PTH challenge infusion (33 ug/kg/hour) was started after 60 min of test compound infusion and sustained for one hour (60-120 min). Urine collection was conducted in 30-minute periods. Urine cAMP levels were assessed by ELISA (R&D systems). Urine samples were prepared for analysis as per the manufacturer's instructions. A standard curve for cAMP was assayed for each experiment and samples were assessed using a standard dilution range of 1:2, 1:4, 1:8 and 1:16, ensuring that the resulting data remained on the linear portion of the standard curve. […] Urine cAMP concentration remained below 50,000 pmol/mL. […]

Compound: Cc1ncccc1-c1nc2ccc(C(=O)N[C@H]3CCOc4ccccc43)cc2s1 [Example 7, (S)-N-(chroman-4-yl)-2-(2-methylpyridin-3-yl)benzo[d]thiazole-6-carboxamide]
- activity at 10 µM (m-IMCD3 cells): -7%
- Inhibition of PTH-induced cAMP elevation in rat urine (FIG. 3) [1]: inhibition

From patent publication US20240150339A1, “Compounds and Their Use as PDE4 Activators” (Mironid Limited, priority 2021, published 2024)
